Measurements taken from patent US20250388565A1, “ESTROGEN RECEPTOR ALPHA DEGRADERS AND METHODS OF USE THEREOF” (Relay Therapeutics, Inc., priority 2022, published 2025).

Target: T1, ERα protein (HiBiT-tagged) in ESR1_HiBiT KI MCF7 cells (Homo sapiens, UniProt P03372)
T1 sequence (P03372 1-595): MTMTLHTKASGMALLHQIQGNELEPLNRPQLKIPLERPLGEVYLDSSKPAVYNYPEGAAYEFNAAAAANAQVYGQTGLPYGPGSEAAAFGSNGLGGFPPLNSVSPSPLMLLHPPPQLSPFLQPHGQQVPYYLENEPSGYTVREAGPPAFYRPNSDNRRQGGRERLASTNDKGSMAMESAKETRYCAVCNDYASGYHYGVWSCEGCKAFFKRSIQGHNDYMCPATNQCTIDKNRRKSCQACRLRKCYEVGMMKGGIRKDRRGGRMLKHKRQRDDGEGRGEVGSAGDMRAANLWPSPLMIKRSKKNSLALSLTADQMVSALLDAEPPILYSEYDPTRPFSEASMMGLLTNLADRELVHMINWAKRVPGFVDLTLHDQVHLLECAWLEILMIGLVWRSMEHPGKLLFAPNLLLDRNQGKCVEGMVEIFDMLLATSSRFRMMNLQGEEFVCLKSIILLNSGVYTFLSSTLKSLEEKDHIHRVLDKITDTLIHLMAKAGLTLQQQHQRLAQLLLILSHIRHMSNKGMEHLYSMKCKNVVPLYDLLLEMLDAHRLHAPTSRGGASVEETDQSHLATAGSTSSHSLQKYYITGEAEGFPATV
Test: Nano Glo HiBiT Lytic Degradation Assay
Assay type: cell-based
Details: 6 hours with compound, 14-point dose response 1:3, bell-shape curve fit, half-maximal effect of first Hill model, read-out: MCF7 ESR1 HiBiT - (DC50)
How it was run: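 Lytic Nano-Glo HiBiT luminescence quantified ERα remaining after a 6 h, 37° C compound exposure of MCF7 cells carrying endogenous HiBiT-tagged ESR1. Dosing used 14 threefold dilutions from a 10 mM DMSO stock (0.1% DMSO final), run in duplicate. Signals were corrected for cell-free background and expressed relative to DMSO, and DC50 came from a bell-shaped curve fit (first Hill model half-maximum).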

Structure (SMILES)	DC50 [nM]
O=C1CC[C@H](N2Cc3cc(N4CCN(CC5CCN(c6ccc([C@H]7c8ccc(O)cc8CO[C@H]7CC7CC7)cc6)CC5)CC4)ccc3C2=O)C(=O)N1 (single isomer, unassigned) [Compound I-231]	≥ 10000
O=C1CC[C@H](N2Cc3cc(N4CCN(CC5CCN(c6ccc([C@@H]7c8ccc(O)cc8CC[C@@H]7c7ccc(C(F)(F)F)cc7)cc6)CC5)CC4)ccc3C2=O)C(=O)N1 (single isomer, unassigned) [II-40]	≥ 10000
Cc1cc([C@H]2OCc3cc(O)ccc3[C@H]2c2ccc(N3CCC(CN4CCN(c5ccc6c(c5)CN([C@H]5CCC(=O)NC5=O)C6=O)CC4)CC3)cc2)ccc1F [Compound I-375, (S)-3-(5-(4-((1-(4-((3S,4R)-3-(4-fluoro-3-methylphenyl)-7-hydroxyisochroman-4-yl)phenyl)piperidin-4-yl)methyl)piperazin-1-yl)-1-oxoisoindolin-2-yl)piperidine-2,6-dione]	0.89
C[C@]1(C2CCCCC2)CCc2cc(O)ccc2[C@@H]1c1ccc(N2CCC(CN3CCN(c4ccc5c(c4)CN([C@H]4CCC(=O)NC4=O)C5=O)CC3)CC2)cc1 [Compound I-239, (S)-3-(5-(4-((1-(4-((1S,2R)-2-cyclohexyl-6-hydroxy-2-methyl-1,2,3,4-tetrahydronaphthalen-1-yl)phenyl)piperidin-4-yl)methyl)piperazin-1-yl)-1-oxoisoindolin-2-yl)piperidine-2,6-dione]	1990
Cc1cc(F)c([C@H]2OCc3cc(O)ccc3[C@H]2c2ccc(N3CCC(CN4CCN(c5ccc6c(c5)CN([C@H]5CCC(=O)NC5=O)C6=O)CC4)CC3)cc2)cc1F [Compound I-369, (S)-3-(5-(4-((1-(4-((3S,4R)-3-(2,5-difluoro-4-methylphenyl)-7-hydroxyisochroman-4-yl)phenyl)piperidin-4-yl)methyl)piperazin-1-yl)-1-oxoisoindolin-2-yl)piperidine-2,6-dione]	0.34
O=C1CC[C@H](N2Cc3cc(N4CCN(CC5CCN(c6ccc([C@H]7c8ccc(O)cc8CO[C@H]7c7cccc(OC(F)(F)F)c7)cc6)CC5)CC4)ccc3C2=O)C(=O)N1 [Compound I-361, (S)-3-(5-(4-((1-(4-((3R,4S)-7-hydroxy-3-(3-(trifluoromethoxy)phenyl)isochroman-4-yl)phenyl)piperidin-4-yl)methyl)piperazin-1-yl)-1-oxoisoindolin-2-yl)piperidine-2,6-dione]	≥ 10000
C[C@@]1(C2CCCCC2)CCc2cc(O)ccc2[C@@H]1c1ccc(N2CCC(CN3CCN(c4ccc5c(c4)CN([C@H]4CCC(=O)NC4=O)C5=O)CC3)CC2)cc1 [Compound I-237, (S)-3-(5-(4-((1-(4-((1S,2S)-2-cyclohexyl-6-hydroxy-2-methyl-1,2,3,4-tetrahydronaphthalen-1-yl)phenyl)piperidin-4-yl)methyl)piperazin-1-yl)-1-oxoisoindolin-2-yl)piperidine-2,6-dione]	≥ 10000
O=C1CC[C@H](N2Cc3cc(N4CCN(CC5CCN(c6ccc([C@@H]7c8ccc(O)cc8C(F)(F)C[C@@H]7c7ccccc7F)cc6)CC5)CC4)ccc3C2=O)C(=O)N1 [Compound I-312, (S)-3-(5-(4-((1-(4-((1R,2S)-4,4-difluoro-2-(2-fluorophenyl)-6-hydroxy-1,2,3,4-tetrahydronaphthalen-1-yl)phenyl)piperidin-4-yl)methyl)piperazin-1-yl)-1-oxoisoindolin-2-yl)piperidine-2,6-dione]	0.37
CN(CC1CCN(c2ccc([C@H]3c4ccc(O)cc4CC[C@H]3c3ccccc3)cc2)CC1)C1CN(c2ccc3c(c2)CN(C2CCC(=O)NC2=O)C3=O)C1 (single isomer, unassigned) [II-14]	≥ 10000
O=C1CCC(c2ccc3c(c2)C[C@@H](N2CCN(CC4CCN(c5ccc([C@@H]6c7ccc(O)cc7CC[C@@H]6c6ccccc6)cc5)CC4)CC2)CC3)C(=O)N1 (single isomer, unassigned) [Compound I-422]	141
O=C1CCC(c2cccc(N3CCC4C3CCN4CC3CCN(c4ccc([C@@H]5c6ccc(O)cc6CC[C@@H]5c5ccccc5)cc4)CC3)c2)C(=O)N1 (stereo in doubt) [Compound I-178, 3-(3-((3aS,6aS)-4-((1-(4-((1R,2S)-6-hydroxy-2-phenyl-1,2,3,4-tetrahydronaphthalen-1-yl)phenyl)piperidin-4-yl)methyl)hexahydropyrrolo[3,2-b]pyrrol-1 (2H)-yl)phenyl)piperidine-2,6-dione]	3300
O=C1CCC(c2ccc(N3CCN(CCC4CCN(c5ccc([C@@H]6c7ccc(O)cc7CC[C@@H]6c6ccccc6)cc5)CC4)CC3)cc2)C(=O)N1 (single isomer, unassigned) [Compound I-8]	≥ 10000
C[C@H](C1CC1)[C@H]1CC(F)(F)c2cc(O)ccc2[C@H]1c1ccc(N2CCC(CN3CCN(c4ccc5c(c4)CN([C@H]4CCC(=O)NC4=O)C5=O)CC3)CC2)cc1 (single isomer, unassigned) [Compound I-228]	15
O=C1CC[C@H](N2Cc3cc(N4CCN(CC5CCN(c6ccc([C@@H]7c8ccc(O)cc8CC[C@@H]7c7ccc(O)cc7)cc6)CC5)CC4)ccc3C2=O)C(=O)N1 [Compound I-131, (35)-3-[5-[4-[[1-[4-[(1R, 2S)-6-hydroxy-2-(4-hydroxyphenyl)tetralin-1-yl]phenyl]-4-piperidyl]methyl]piperazin-1-yl]-1-oxo-isoindolin-2-yl]piperidine-2,6-dione]	0.03
O=C1CC[C@H](N2Cc3cc(N4CCN(CC5CCN(c6ccc([C@@H]7c8ccc(O)cc8C(F)(F)C[C@@H]7c7ccccc7)cc6)CC5)CC4)ccc3C2=O)C(=O)N1 [Compound I-51, (S)-3-(5-(4-((1-(4-((1R,2S)-4,4-difluoro-6-hydroxy-2-phenyl-1,2,3,4-tetrahydronaphthalen-1-yl)phenyl)piperidin-4-yl)methyl)piperazin-1-yl)-1-oxoisoindolin-2-yl)piperidine-2,6-dione]	0.45
O=C1CCN(c2ccc(N3CC[C@@]4(CCN(CC5CCN(c6ccc([C@@H]7c8ccc(O)cc8CC[C@@H]7c7ccccc7)cc6)CC5)C4)C3)cc2)C(=O)N1 (single isomer, unassigned) [Compound I-288]	≥ 10000
CC(C)C[C@@H]1OCc2cc(O)ccc2[C@H]1c1ccc(N2CCC(CN3CCN(c4ccc5c(c4)CN([C@H]4CCC(=O)NC4=O)C5=O)CC3)CC2)cc1 (single isomer, unassigned) [Compound I-222]	0.32
O=C1CCC(c2ccc(N3CC[C@H]4[C@@H]3CCN4CC3CCN(c4ccc([C@@H]5c6ccc(O)cc6CC[C@@H]5c5ccccc5)cc4)CC3)cc2)C(=O)N1 (stereo partly drawn) [Compound I-177, 3-(4-((3aS,6aS)-4-((1-(4-((1R,2S)-6-hydroxy-2-phenyl-1,2,3,4-tetrahydronaphthalen-1-yl)phenyl)piperidin-4-yl)methyl)hexahydropyrrolo[3,2-b]pyrrol-1 (2H)-yl)phenyl)piperidine-2,6-dione]	≥ 10000
O=C1CC[C@H](N2Cc3cc(N4CCN(CC5CCN(c6c(F)cc([C@@H]7c8ccc(O)cc8CC[C@@H]7c7ccccc7)cc6F)CC5)CC4)ccc3C2=O)C(=O)N1 [II-84]	0.8
CN(CC1CCN(c2ccc([C@@H]3c4ccc(O)cc4CC[C@@H]3c3ccccc3)cc2)CC1)C1CN(c2ccc3c(c2)CN(C2CCC(=O)NC2=O)C3=O)C1 (single isomer, unassigned) [II-9]	21
C[C@H]1CN(CC2CCN(c3ccc([C@H]4c5ccc(O)cc5CC[C@H]4c4ccccc4)cc3)CC2)CCN1c1ccc2c(c1)CN([C@H]1CCC(=O)NC1=O)C2=O (single isomer, unassigned) [II-12]	≥ 10000
O=C1CC[C@H](N2Cc3cc(N4CCN(CC5CCN(c6ccc([C@H]7c8ccc(O)cc8CC[C@H]7C7CCCCC7)cc6F)CC5)CC4)ccc3C2=O)C(=O)N1 [Compound I-236, (S)-3-(5-(4-((1-(4-((1S,2S)-2-cyclohexyl-6-hydroxy-1,2,3,4-tetrahydronaphthalen-1-yl)-2-fluorophenyl)piperidin-4-yl)methyl)piperazin-1-yl)-1-oxoisoindolin-2-yl)piperidine-2,6-dione]	72
O=C1CCC(N2Cc3cc(N4CCN(CC5CCN(c6ccc([C@@H]7c8ccc(O)cc8CC[C@@H]7c7ccccc7)cc6)CC5)CC4)c(F)cc3C2=O)C(=O)N1 (single isomer, unassigned) [II-19]	≥ 10000
O=C1CC[C@H](N2Cc3cc(N4CCN(CC5CCN(c6ccc([C@H]7c8ccc(O)cc8CC[C@@]78CCCc7ccccc78)cc6)CC5)CC4)ccc3C2=O)C(=O)N1 (single isomer, unassigned) [Compound I-266]	17
O=C1CC[C@H](N2Cc3cc(N4CCN(CC5CCN(c6ccc([C@@H]7c8ccc(O)cc8CO[C@@H]7c7ccccc7)cc6F)CC5)CC4)ccc3C2=O)C(=O)N1 (single isomer, unassigned) [Compound I-381]	0.16
Cn1c(=O)n([C@@H]2CCC(=O)NC2=O)c2ccc(N3CCN(CC4CCN(c5ccc([C@@H]6c7ccc(O)cc7CC[C@@H]6c6ccccc6)cc5)CC4)CC3)cc21 (single isomer, unassigned) [Compound I-276]	0.5
